Measured values as given in patent US7687473B2, “5-amino-4-imidazolecarboxamide riboside and its nucleobase as potentiators of antifolate transport and metabolism” (Health Research, Inc., priority 2005, dated 2010).
Where two headings read alike, the source gives them in different places.

Legend:
CCRF-CEM cells [1] = test: [3H]MTX uptake (initial velocity and 30 min accumulation) in CCRF-CEM cells; format: cell-based, human; conditions: for Potentiation of [3H]MTX uptake at 30 min: compound at 0.5 mM, 10 min pre-incubation with TMTX
Experimental: (§1) Quantitation of folate and antifolate uptake. The method is essentially as follows. Briefly, logarithmically growing (3-5×10^5/ml) CCRF-CEM cells were harvested at room temperature by centrifugation at 1000×g for 5 min. After washing with the appropriate medium, cells were suspended at ≈2×10^7 cells/ml for use in transport studies. […] Anion-free MHS contains 250 mM sucrose and 20 mM HEPES, titrated to pH 7.4 with MgO. […] Uptake was measured as a function of time for 30 min (for rate and extent measurements) or over 5 min (studies requiring initial velocities). […] Uptake was terminated by diluting 100 μL samples into 1 ml of iced 0.9% NaCl. […] The supernatant was aspirated. The cell pellet was washed once with 1 ml iced 0.9% NaCl and centrifuged as above. The washed pellet was solubilized in 1 ml of 0.3% Triton X-100 by incubation for 60 min at 37° C. The solubilized pellet was transferred to a scintillation vial, 10 ml of Liquiscint (National Diagnostics, Atlanta, Ga.) was added and radioactivity was quantitated in a Beckman Model LS6500 liquid scintillation counter. Separate samples at the longest incubation time used in a particular experiment were harvested for HPLC analysis of intracellular contents as above, except that after the second wash the pellets were extracted with 1 ml boiling 0.1 M Na-phosphate, pH 5.5. The extract was clarified by centrifugation and the supernatant was filtered through an MPS-1 filter unit (Amicon) prior to HPLC analysis.

[2] = target: T1, reduced folate carrier (RFC) (Homo sapiens, UniProt P41440); test: Inhibition of initial velocity of [3H]MTX influx by competitors; format: cell-based; conditions: for IC50: IC50, inhibition of initial velocity of [3H]MTX influx
T1 construct: endogenous in cells; host or cells: CCRF-CEM (parental)
T1 sequence (P41440 1-591): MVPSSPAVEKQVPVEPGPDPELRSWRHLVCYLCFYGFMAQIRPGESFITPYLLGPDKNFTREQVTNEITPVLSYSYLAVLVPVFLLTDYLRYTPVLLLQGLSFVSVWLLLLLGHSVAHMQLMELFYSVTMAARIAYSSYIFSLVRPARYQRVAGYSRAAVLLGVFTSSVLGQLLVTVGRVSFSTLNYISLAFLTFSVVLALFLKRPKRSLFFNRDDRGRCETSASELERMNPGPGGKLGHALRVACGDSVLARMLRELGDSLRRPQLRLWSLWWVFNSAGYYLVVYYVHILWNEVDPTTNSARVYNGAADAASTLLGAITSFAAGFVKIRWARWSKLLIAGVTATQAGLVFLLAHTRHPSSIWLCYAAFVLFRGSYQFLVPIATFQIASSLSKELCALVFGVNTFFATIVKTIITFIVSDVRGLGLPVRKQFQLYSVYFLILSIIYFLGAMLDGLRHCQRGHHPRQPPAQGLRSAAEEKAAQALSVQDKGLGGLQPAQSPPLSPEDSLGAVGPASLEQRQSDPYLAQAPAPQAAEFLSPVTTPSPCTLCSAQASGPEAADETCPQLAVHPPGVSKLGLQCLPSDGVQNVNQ
Experimental: Duplicate samples were removed at 5 min and processed as described above.
Inhibition of the vi of uptake was measured after pre-incubation of CCRF-CEM cells either with TMTX alone (measuring inhibition at the RFC) or with TMTX+Z (measuring inhibition during Z potentiation). […] All studies were carried out in standard transport medium. Inhibitory potency was measured in two series of experiments and AMT was included in each series as an internal control. Values are average±range of two determinations. […] Values are average±range for duplicate determinations.

CCRF-CEM cells [3] = test: [3H]leucovorin uptake in CCRF-CEM cells; format: cell-based, human
Experimental: as §1

CCRF-CEM cells [4] = test: cells; format: cell-based, human
Experimental: Inhibition of growth of human cell lines in vitro. Inhibition of growth of CCRF-CEM in continuous and intermittent drug exposures was measured. EC50 values were determined from plots of percent control growth versus the logarithm of drug concentration.
[…]; n=2). […]; n=2). Values presented are average±S.D. for n>2 and average±range for n=2. […] […]; EC50 data may therefore underestimate the biological potency.

[5] = +TMTX + Z, 10 min pre-incubation with 1 μM TMTX and 0.5 mM Z (Z potentiated influx)
[6] = +TMTX, 10 min pre-incubation with 1 μM TMTX alone (inhibition of the RFC)
[7] = 1 mM, 30 min incubation, TMTX present, Z absent

With Nc1nc2c(ncn2[C@H]2C[C@H](O)[C@@H](CO)O2)c(=O)[nH]1 [deoxyguanosine] the “Potentiation of [3H]MTX uptake at 30 min” value (CCRF-CEM cells [1]) was “do not potentiate”.

Nc1nc2c(c(=O)[nH]1)N(C=O)[C@H](CNc1ccc(C(=O)N[C@@H](CCC(=O)O)C(=O)O)cc1)CN2 [(6R,S)-LV, [6R,S]-5-formyltetrahydrofolate] was tested, and the IC50 [2, 5] was 2700 nM and the IC50 [2, 6] was 2600 ± 100 nM.

With Cc1ccc2nc(N)[nH]c(=O)c2c1Sc1ccncc1 [AG337] the “Effect on potentiation of LV uptake induced by TMTX+Z” value (CCRF-CEM cells [3]; 20 μM) was “completely block”, the “Potentiation of [3H]LV uptake” value (CCRF-CEM cells [3]; 10 min preincubation at 2 or 20 μM, presence or absence of Z) was “does not potentiate” and the EC50 (CCRF-CEM cells [4]; read-out: EC50 for growth inhibition) was 600 nM.

With O=c1[nH]cnc2nc[nH]c12 [hypoxanthine] the “Potentiation of [3H]MTX uptake at 30 min” value (CCRF-CEM cells [1]) was “do not potentiate”.

Cc1cn([C@H]2C[C@H](O)[C@@H](CO)O2)c(=O)[nH]c1=O [thymidine] was tested, and the “Potentiation of [3H]MTX uptake at 30 min” value (CCRF-CEM cells [1]) was “do not potentiate”.

Compound Nc1nc2[nH]cc(CCc3ccc(C(=O)N[C@@H](CCC(=O)O)C(=O)O)cc3)c2c(=O)[nH]1 [pemetrexed] has an EC50 (CCRF-CEM cells [4]; Homo sapiens, CCRF-CEM, 0-6 hr pulse exposure out of 120 hr, 50 μM Z, read-out: EC50) of 320 ± 30 nM, an EC50 (CCRF-CEM cells [4]; Homo sapiens, CCRF-CEM, 0-6 hr pulse exposure out of 120 hr, absence of Z, read-out: EC50) of 300 ± 10 nM and an EC50 (CCRF-CEM cells [4]; Homo sapiens, CCRF-CEM, 0-16 hr pulse exposure out of 120 hr, 50 μM Z, read-out: EC50) of 102 ± 17.5 nM. The EC50 (CCRF-CEM cells [4]; Homo sapiens, CCRF-CEM, 0-16 hr pulse exposure out of 120 hr, absence of Z, read-out: EC50) was 85.5 ± 6.5 nM, the EC50 (CCRF-CEM cells [4]; Homo sapiens, CCRF-CEM, 120 h, 120 hr continuous exposure, 50 μM Z, read-out: EC50) was 19.8 ± 3.3 nM and the EC50 (CCRF-CEM cells [4]; Homo sapiens, CCRF-CEM, 120 h, 120 hr continuous exposure, absence of Z, read-out: EC50) was 18.3 ± 3.4 nM.

With Nc1nc2c(ncn2[C@@H]2O[C@H](CO)[C@@H](O)[C@H]2O)c(=O)[nH]1 [guanosine] the “Ability to potentiate [3H]MTX uptake” value (CCRF-CEM cells [1]) was “unable to potentiate” and the “Potentiation of [3H]MTX uptake at 30 min” value (CCRF-CEM cells [1]) was “do not potentiate”.

Nc1ncnc2nc[nH]c12 [adenine] was tested, and the “Potentiation of [3H]MTX uptake at 30 min” value (CCRF-CEM cells [1]) was “do not potentiate”.

CCCC(=O)Nc1ncnc2c1ncn2[C@@H]1O[C@@H]2COP(=O)(O)O[C@H]2[C@H]1OC(=O)CCC [dibutyryl-cAMP] was tested, and the “30 min accumulation of [3H]MTX compared to TMTX alone” value (CCRF-CEM cells [1]; [7]) was “lower 30 min accumulation” and the “Initial velocity of [3H]MTX uptake compared to TMTX alone” value (CCRF-CEM cells [1]; [7]) was “reduced initial velocity”.

In the case of Nc1nc2ncc(CNc3ccc(C(=O)N[C@@H](CCC(=O)O)C(=O)O)cc3)nc2c(=O)[nH]1 [PteGlu, folic acid], the IC50 [2, 5] is reported as 18500 ± 1100 nM, the IC50 [2, 6] is reported as 18600 ± 600 nM and the “Plateau in inhibition of [3H]MTX influx” value ([2]; observed ±Z, data not shown) is reported as 60-70%.

For OC[C@H]1O[C@@H](n2cnc3c(O)ncnc32)[C@H](O)[C@@H]1O [inosine], the “Ability to potentiate [3H]MTX uptake” value (CCRF-CEM cells [1]) was “unable to potentiate” and the “Potentiation of [3H]MTX uptake at 30 min” value (CCRF-CEM cells [1]) was “do not potentiate”.

Cc1nc2ccc3ccc(CNc4ccc5c(c4)CN([C@@H](CCC(=O)O)C(=O)O)C5=O)cc3c2c(=O)[nH]1 [BW1843U89, (S)-2-(5-(((1,2-dihydro-3-methyl-1-oxobenzo(F)quinazolin-9-yl)methyl)-amino)-1-oxo-2-isoindolinyl)glutaric acid] was tested, and the IC50 [2, 5] was 1300 ± 400 nM and the IC50 [2, 6] was 1000 ± 100 nM.
